From PMC9356065, “Novel psoralen derivatives as anti-breast cancer agents and their light-activated cytotoxicity against HER2 positive breast cancer cells” (Scientific Reports, 2022)

Assays:
[1] = Inhibition of superoxide radical formation by xanthine/xanthine oxidase (XXO); type: biochemical; settings: for XXO %Inh: screening concentration 500 µM
Source text: 1. […]

MDA-MB-231 [2] = experiment: MTT cytotoxicity, 48 h, without UVA; type: cell-based; settings: Homo sapiens, MDA-MB-231, light or radiation study; for inhibition at 50 µg/mL: I = %inhibition lower than 50%, read-out: Cytotoxic activity MDA-MB-231 %Inhibition; for IC50: hormone-independent breast cancer, read-out: Cytotoxic activity MDA-MB-231 IC50
Experimental: (§1) MDA-MB-231 (triple-negative breast cancer) was obtained from M.D. Anderson Cancer Center, Houston, TX, USA). T47-D (hormone-dependent breast carcinoma), SK-BR-3 (human HER2+ breast cancer), and MRC-5 (normal embryonic lung fibroblast) were obtained from the American Type Culture Collection (ATCC, Manassas, VA, USA).
(§2) The cytotoxic effect of tested compounds was evaluated in two breast cancer cell lines, MDA-MB-231 and T47-D. Number of survival cells after exposure to tested compounds for 48 h was determined by MTT assay, as previously described.

T47-D = experiment: MTT cytotoxicity, 48 h, without UVA; type: cell-based, human; settings: for inhibition at 50 µg/mL / IC50: Homo sapiens, T47D, light or radiation study, 48 h, without UVA; for inhibition at 50 µg/mL: I = %inhibition lower than 50%, read-out: Cytotoxic activity T47-D %Inhibition; for IC50: hormone-dependent breast cancer, read-out: Cytotoxic activity T47-D IC50; for Selectivity Index (SI): SI = IC50 for MRC-5/IC50 for T47-D
Experimental: Additionally, the cytotoxicity towards normal cells, human embryonal lung fibroblast cell MRC-5 was also assessed.
as §1, §2

aromatase (CYP19) = molecular target: T1, aromatase (CYP19) (Homo sapiens, UniProt P11511); experiment: Inhibition of aromatase (AIA); type: biochemical; settings: for inhibition at 12.5 µM: I = %inhibition lower than 50%, read-out: Aromatase inhibitory activity %Inhibition; for IC50: read-out: Aromatase inhibitory activity IC50
T1 sequence (P11511 1-503): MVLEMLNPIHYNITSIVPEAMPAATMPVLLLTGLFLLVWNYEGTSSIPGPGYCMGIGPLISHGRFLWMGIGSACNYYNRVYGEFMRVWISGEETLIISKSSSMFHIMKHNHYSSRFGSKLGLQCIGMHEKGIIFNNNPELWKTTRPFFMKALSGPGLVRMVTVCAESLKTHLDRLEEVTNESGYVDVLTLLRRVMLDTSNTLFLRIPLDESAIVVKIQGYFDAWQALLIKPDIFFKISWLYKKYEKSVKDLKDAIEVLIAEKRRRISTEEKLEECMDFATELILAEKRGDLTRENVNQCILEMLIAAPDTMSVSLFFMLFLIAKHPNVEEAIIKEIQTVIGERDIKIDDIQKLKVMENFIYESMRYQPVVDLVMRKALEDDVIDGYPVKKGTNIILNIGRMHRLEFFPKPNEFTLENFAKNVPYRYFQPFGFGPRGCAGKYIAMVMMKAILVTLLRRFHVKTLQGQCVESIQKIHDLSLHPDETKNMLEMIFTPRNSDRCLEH
Experimental: Estrogens are the critical risk factor for breast cancer initiation and progression and the aromatase enzyme involves in the final step conversion of androgens to estrogens[21],[22]. […] In this study, the synthesized psoralen derivatives were also tested for aromatase inhibitory activity (AIA) which is considered to be one of chemopreventive mechanisms for hormone dependent breast cancer.
Inhibition of the aromatase was performed using the method designed by Stresser et al.[39].

[3] = Scavenging of diphenyl-picryl-hydrazyl radicals (DPPH); settings: for DPPH %Inh: screening concentration 250 µM
Source text: 1. Chemoprevention activity

[4] = tested on: differentiated HL-60 cells; experiment: Inhibition of TPA-induced superoxide anion radical generation (HL-60 Antioxidant); type: cell-based, human; settings: screening concentration 100 µM; for inhibition at 100 µM: Homo sapiens, HL-60, read-out: HL-60 Antiox. %Inh
Source text: Inhibition of 12-O-tetradecanoylphorbol-13-acetate (TPA)-induced superoxide anion radical generation in differentiated HL-60 cells (HL-60 Antioxidant) TPA-induced superoxide anion radical formation was detected in differentiated HL-60 cells by photometric determination of cytochrome c reduction as previously described by Gerhäuser et al., 2003.ii Superoxide dismutase (SOD;15U) was a positive control. […]

xanthine oxidase = xanthine oxidase (Homo sapiens, UniProt P47989); experiment: Inhibition of xanthine oxidase (IXO); type: biochemical; settings: screening concentration 500 µM; read-out: IXO %Inh
Experimental: 1. […]
Inhibition of xanthine oxidase (IXO)
Xanthine oxidase activity was determined by quantifying the amount of uric acid produced
from xanthine. […]

SK-BR-3 [5] = experiment: Dark and light-activated (UVA) cytotoxicity, MTT; type: cell-based, human; settings: Homo sapiens, SK-BR-3, light or radiation study; irradiation with UVA (2.0 J cm^−2); HER2+ breast cancer
Experimental: (§3) The selected compounds were screened for their IC50 values against both HER2+ breast cancer (SK-BR-3), and HER2− breast cancer (MDA-MB-231) in both dark and light-activated conditions (Table 2). Additionally, a negative control study was also performed with SK-BR-3 and MDA-MB-231 cells in the absence of tested compound under UVA irradiation (See Fig S7., Supporting Information).
(§4) SK-BR-3 and MDA-MB-231 cells were seeded into 96-well cell culture plates at 5 × 10^3 cells/well and incubated for 24 h at 37 °C under 5% CO2. After that, the cells were treated with 50 μM of psoralen derivatives in DMEM with 10% FBS and the cells were continued incubation for another 4 h. After incubation, the cells were washed with PBS (3 times) and then irradiated by a 365 nm lamp with the light intensity of 2.0 J cm^−2 for 12.5 min before re-incubation for another 72 h. After incubation, the cell was treated with methylthiazolyldiphenyl-tetrazolium bromide (MTT reagent 200 μL, 0.5 mg mL^−1, Sigma-Aldrich) for 2 h. After reagent removal, DMSO was added to dissolve the formazan product and the cell viabilities were determined through UV–Vis absorption of the resulting formazan at wavelength 560 nm using a microplate reader (BMG Labtech/SPECTROstar Nano). The cell morphology images were captured by using a light microscope (Microscope Nikon, inverted digital) at 20X magnification prior to treating with MTT reagent.

MDA-MB-231 [6] = experiment: Dark and light-activated (UVA) cytotoxicity, MTT; type: cell-based; settings: Homo sapiens, MDA-MB-231, light or radiation study; irradiation with UVA (2.0 J cm^−2); HER2− breast cancer
Experimental: as §3, §4

SK-BR-3 [7] = experiment: Dark and light-activated (UVA) cytotoxicity, MTT; type: cell-based; settings: Homo sapiens, dark, HER2+ breast cancer
MDA-MB-231 [8] = experiment: Dark and light-activated (UVA) cytotoxicity, MTT; type: cell-based; settings: Homo sapiens, dark, HER2− breast cancer
MCF-7 = settings: Fig. 1d; cited from earlier work

xanthine oxidase, sequence (P47989 whole entry, species assumed): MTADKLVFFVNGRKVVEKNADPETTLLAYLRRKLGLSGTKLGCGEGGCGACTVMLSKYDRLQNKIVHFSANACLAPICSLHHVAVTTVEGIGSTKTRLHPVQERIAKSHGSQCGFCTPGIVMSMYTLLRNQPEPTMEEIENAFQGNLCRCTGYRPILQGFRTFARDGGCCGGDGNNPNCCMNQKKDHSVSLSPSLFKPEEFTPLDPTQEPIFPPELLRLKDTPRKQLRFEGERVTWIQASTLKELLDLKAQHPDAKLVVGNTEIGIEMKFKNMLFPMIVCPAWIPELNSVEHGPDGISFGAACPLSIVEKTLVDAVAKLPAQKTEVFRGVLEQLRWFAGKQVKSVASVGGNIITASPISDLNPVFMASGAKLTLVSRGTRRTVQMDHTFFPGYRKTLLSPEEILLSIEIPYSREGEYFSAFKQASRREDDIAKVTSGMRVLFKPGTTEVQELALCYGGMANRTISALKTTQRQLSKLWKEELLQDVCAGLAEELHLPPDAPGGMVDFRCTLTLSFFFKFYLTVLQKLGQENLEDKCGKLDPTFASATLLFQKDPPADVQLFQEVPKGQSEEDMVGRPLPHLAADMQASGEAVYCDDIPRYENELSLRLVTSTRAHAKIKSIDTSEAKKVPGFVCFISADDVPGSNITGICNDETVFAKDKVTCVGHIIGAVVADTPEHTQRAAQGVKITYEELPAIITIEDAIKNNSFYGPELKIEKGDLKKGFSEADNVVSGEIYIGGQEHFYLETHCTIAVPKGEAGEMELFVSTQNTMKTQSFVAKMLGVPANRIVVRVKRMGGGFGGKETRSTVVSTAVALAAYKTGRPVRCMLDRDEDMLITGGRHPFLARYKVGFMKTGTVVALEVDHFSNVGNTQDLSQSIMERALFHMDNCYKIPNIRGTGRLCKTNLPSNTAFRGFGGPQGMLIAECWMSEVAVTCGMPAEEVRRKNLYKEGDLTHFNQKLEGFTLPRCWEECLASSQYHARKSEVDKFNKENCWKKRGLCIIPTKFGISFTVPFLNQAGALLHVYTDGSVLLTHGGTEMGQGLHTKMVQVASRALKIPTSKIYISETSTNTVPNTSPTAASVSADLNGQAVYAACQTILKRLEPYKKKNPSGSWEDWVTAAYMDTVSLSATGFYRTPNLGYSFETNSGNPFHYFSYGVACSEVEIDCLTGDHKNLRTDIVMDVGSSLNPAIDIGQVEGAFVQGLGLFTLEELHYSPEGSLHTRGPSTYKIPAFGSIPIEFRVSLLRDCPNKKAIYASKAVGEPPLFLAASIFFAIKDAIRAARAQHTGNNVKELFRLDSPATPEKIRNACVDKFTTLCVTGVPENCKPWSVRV

Row | inhibition at 12.5 µM (aromatase (CYP19)) | melting point | Structure (SMILES) | inhibition at 50 µg/mL (MDA-MB-231 [2]) | inhibition at 50 µg/mL (T47-D) | DPPH %Inh [3] | inhibition at 100 µM [4] | other results
1 | 14% | 210 to 212 °C | COc1c2occc2c(NC(=O)C(C)(C)C)c2ccc(=O)oc12 [3l, N-(9-Methoxy-7-oxo-7H-furo[3,2-g]chromen-4-yl)pivalamide] | 1% | 21% | 1% | 10% | IC50 (SK-BR-3 [5]): 48.1 ± 3.07 µM; IC50 (MDA-MB-231 [6]): > 100 µM; IC50 (SK-BR-3 [7]): > 100 µM; IC50 (MDA-MB-231 [8]): > 100 µM
2 | 34% | 237 to 238 °C | COc1c2occc2c([N+](=O)[O-])c2ccc(=O)oc12 [compound 1, 9-Methoxy-4-nitro-7H-furo[3,2-g]chromen-7-one] | 39% | – | 5% | 1% | IC50 (T47-D): > 100 µM
3 | 9% | 238 to 239 °C | COc1c2occc2c(N)c2ccc(=O)oc12 [compound 2, 4-Amino-9-methoxy-7H-furo[3,2-g]chromen-7-one] | 3% | 28% | 23% | 0% | –
4 | – | 170 to 171 °C | CCCCCC(=O)N(C(=O)CCCCC)c1c2ccoc2c(OC)c2oc(=O)ccc12 [3m, N-Hexanoyl-N-(9-methoxy-7-oxo-7H-furo[3,2-g]chromen-4-yl)hexanamide] | 5% | 15% | 1% | 0% | IC50 (aromatase (CYP19)): 9.4 ± 0.4 µM; IC50 (SK-BR-3 [5]): 27.1 ± 1.2 µM; IC50 (MDA-MB-231 [6]): > 100 µM; XXO %Inh [1]: 2%; IC50 (SK-BR-3 [7]): > 100 µM; IC50 (MDA-MB-231 [8]): > 100 µM

The next lines start with the molecule.

Row | Structure (SMILES) | inhibition at 12.5 µM (aromatase (CYP19)) | melting point | inhibition at 50 µg/mL (MDA-MB-231 [2]) | inhibition at 50 µg/mL (T47-D) | DPPH %Inh [3] | inhibition at 100 µM [4] | other results
5 | O=C(O)c1cc(O)c(O)c(O)c1 [Gallic acid, reference compound] | – | – | – | – | – | – | IC50 ([1]; positive control, read-out: XXO IC50 (standard)): 2.8 ± 0.1 µM
6 | COc1c2occc2c(NC(C)=O)c2ccc(=O)oc12 [3i, N-(9-Methoxy-7-oxo-7H-furo[3,2-g]chromen-4-yl)acetamide] | 7% | 251 to 252 °C | 6% | 20% | 1% | 11% | inhibition at 500 µM (xanthine oxidase): 47%
7 | COc1c2occc2c(NC(=O)c2cccs2)c2ccc(=O)oc12 [3h, N-(9-Methoxy-7-oxo-7H-furo[3,2-g]chromen-4-yl) thiophene-2-carboxamide] | 8% | 213 to 214 °C | 8% | 25% | 6% | 24% | –
8 | COc1ccc(C(=O)Nc2c3ccoc3c(OC)c3oc(=O)ccc23)cc1 [3e, 4-Methoxy-N-(9-methoxy-7-oxo-7H-furo[3,2-g]chromen-4-yl)benzamide] | 15% | 211 to 212 °C | 19% | 38% | 4% | 0% | IC50 (SK-BR-3 [5]): 66.7 ± 2.75 µM; IC50 (MDA-MB-231 [6]): > 100 µM; IC50 (SK-BR-3 [7]): > 100 µM; IC50 (MDA-MB-231 [8]): > 100 µM
9 | COc1c2occc2c(NCc2ccc(Br)cc2)c2ccc(=O)oc12 [4b, 4-((4-Bromobenzyl)amino)-9-methoxy-7H-furo[3,2-g]chromen-7-one] | – | 150 to 151 °C | – | – | – | – | IC50 (MDA-MB-231 [2]): 94.4 ± 4.77 µM; fold superiority of SI over tamoxifen citrate (T47-D): ≥ 3.7 fold; IC50 (T47-D): 10.4 ± 0.79 µM; Selectivity Index (SI) (T47-D): > 12.0; IC50 (aromatase (CYP19)): 0.9 ± 0.2 µM; IC50 ([3]; read-out: DPPH IC50): 166 µM; HL-60 Antiox. %Inh [4]: Toxic
10 | COc1c2occc2c(N=Cc2cccs2)c2ccc(=O)oc12 [II] | – | – | – | – | – | – | anti-cancer activity (MCF-7) (MCF-7): Inactive
11 | O=C1O[C@H]([C@@H](O)CO)C(O)=C1O [Ascorbic acid, reference compound] | – | – | – | – | – | – | IC50 ([3]; half-maximal scavenging concentration, reference compound, read-out: DPPH IC50 (standard)): 43.1 µM
12 | COc1c2occc2c(NC(=O)c2ccc(Br)cc2)c2ccc(=O)oc12 [3c, 4-Bromo-N-(9-methoxy-7-oxo-7H-furo[3,2-g]chromen-4-yl)benzamide] | 13% | 293 to 294 °C | – | – | 6% | – | IC50 (MDA-MB-231 [2]): 91.3 ± 7.84 µM; IC50 (T47-D): 10.1 ± 0.53 µM; Selectivity Index (SI) (T47-D): > 11.9; HL-60 Antiox. %Inh [4]: Toxic; XXO %Inh [1]: 25%
13 | COc1c2occc2c(NC(=O)c2ccccc2)c2ccc(=O)oc12 [3a, N-(9-Methoxy-7-oxo-7H-furo[3,2-g]chromen-4-yl)benzamide] | 3% | 220 to 222 °C | 25% | 45% | 6% | 3% | –
14 | CCNC(=S)Nc1c2ccoc2c(OC)c2oc(=O)ccc12 [IVa] | – | – | – | – | – | – | anti-cancer activity (MCF-7) (MCF-7): Inactive
15 | COc1c2occc2c(NC(=O)c2ccc(C(F)(F)F)cc2)c2ccc(=O)oc12 [3d, N-(9-Methoxy-7-oxo-7H-furo[3,2-g]chromen-4-yl)-4-(trifluoromethyl)benzamide] | 10% | 284 to 286 °C | 35% | – | 7% | – | fold superiority of SI over tamoxifen citrate (T47-D): ≥ 2.8 fold; IC50 (T47-D): 13.6 ± 0.26 µM; Selectivity Index (SI) (T47-D): > 9.1; HL-60 Antiox. %Inh [4]: Toxic
16 | COc1c2occc2c(NC(=S)NCc2ccccc2)c2ccc(=O)oc12 [IVb] | – | – | – | – | – | – | anti-cancer activity (MCF-7) (MCF-7): Inactive
17 | COc1c2occc2c(N2C(=O)CSC2c2ccc(Br)cc2)c2ccc(=O)oc12 (centres unmarked) [III] | – | – | – | – | – | – | anti-cancer activity (MCF-7) (MCF-7): Inactive
18 | COc1c2occc2c(NC(=O)c2ccc(F)cc2)c2ccc(=O)oc12 [3b, 4-Fluoro-N-(9-methoxy-7-oxo-7H-furo[3,2-g]chromen-4-yl)benzamide] | 6% | 276 to 277 °C | 34% | 49% | 3% | 1% | –
